Results taken from ChEMBL document CHEMBL1201862, “PubChem BioAssay data set” (2004).
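Tested at 5 concentrations; 48 h exposure; 96-well plates; endpoints linearly interpolated, else capped at highest concentration. GI50 = concentration required for 50% inhibition of growth.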 The source made the active and inactive calls. Cut-off read from the data, not from the text of the source: active = GI50 up to about 1.1 µM and inactive = higher.

Legend:
Assay in all cases: NCI tumour cell line growth inhibition, 48 h
SNB-75 = tested on: SNB-75
NCI-H226 = tested on: NCI-H226
XF498 = tested on: XF498
786-0 = tested on: 786-0
KM-20L2 = tested on: KM-20L2
CCRF-CEM = tested on: CCRF-CEM
A498 = tested on: A498
K562 = tested on: K562
HOP-62 = tested on: HOP-62
DLD-1 = tested on: DLD-1
OVCAR-3 = tested on: OVCAR-3
KM12 = tested on: KM12
UO-31 = tested on: UO-31
M14 = tested on: M14
OVCAR-8 = tested on: OVCAR-8
SK-MEL-5 = tested on: SK-MEL-5
UACC-257 = tested on: UACC-257
SF-295 = tested on: SF-295
SF-268 = tested on: SF-268
COLO 205 = tested on: COLO 205
CAKI-1 = tested on: CAKI-1
M19-MEL = tested on: M19-MEL
SNB-19 = tested on: SNB-19
TK-10 = tested on: TK-10
SF-539 = tested on: SF-539
SN12C = tested on: SN12C
LOX IMVI = tested on: LOX IMVI
IGROV-1 = tested on: IGROV-1
NCI-H460 = tested on: NCI-H460
UACC-62 = tested on: UACC-62
SK-OV-3 = tested on: SK-OV-3
SNB-78 = tested on: SNB-78
DMS-273 = tested on: DMS-273
A549 = tested on: A549
NCI-H23 = tested on: NCI-H23
SK-MEL-28 = tested on: SK-MEL-28
EKVX = tested on: EKVX
Malme-3M = tested on: Malme-3M
SK-MEL-2 = tested on: SK-MEL-2
HCT-15 = tested on: HCT-15
U-251 = tested on: U-251
RXF 393 = tested on: RXF 393
RPMI-8226 = tested on: RPMI-8226
NCI-H522 = tested on: NCI-H522
HCC 2998 = tested on: HCC 2998
SW-620 = tested on: SW-620
HT-29 = tested on: HT-29
MOLT-4 = tested on: MOLT-4
HOP-92 = tested on: HOP-92
DMS-114 = tested on: DMS-114
HL-60 = tested on: HL-60
LXFL 529 = tested on: LXFL 529
OVCAR-5 = tested on: OVCAR-5
ACHN = tested on: ACHN
HCT-116 = tested on: HCT-116
OVCAR-4 = tested on: OVCAR-4
SR = tested on: SR

With `O=C(Nc1ccccc1Cl)c1ccc([N+](=O)[O-])cc1` the GI50 (SNB-75) was 22.4 µM (inactive), the GI50 (NCI-H226) was > 100 µM (inactive) and the GI50 (XF498) was > 100 µM (inactive). For the same compound, the GI50 (786-0) was 45.7 µM (inactive), the GI50 (KM-20L2) was > 100 µM (inactive) and the GI50 (CCRF-CEM) was > 100 µM (inactive). For the same compound, the GI50 (A498) was > 100 µM (inactive), the GI50 (K562) was > 100 µM (inactive) and the GI50 (HOP-62) was 47.4 µM (inactive). The GI50 (DLD-1) was > 100 µM (inactive), the GI50 (OVCAR-3) was > 100 µM (inactive) and the GI50 (KM12) was > 100 µM (inactive). For the same compound, the GI50 (UO-31) was > 100 µM (inactive), the GI50 (M14) was > 100 µM (inactive) and the GI50 (OVCAR-8) was > 100 µM (inactive). For the same compound, the GI50 (SK-MEL-5) was > 100 µM (inactive), the GI50 (UACC-257) was > 100 µM (inactive) and the GI50 (SF-295) was 46.7 µM (inactive). For the same compound, the GI50 (SF-268) was > 100 µM (inactive), the GI50 (COLO 205) was > 100 µM (inactive) and the GI50 (CAKI-1) was > 100 µM (inactive). The GI50 (M19-MEL) was > 100 µM (inactive), the GI50 (SNB-19) was 41.2 µM (inactive) and the GI50 (TK-10) was > 100 µM (inactive). For the same compound, the GI50 (SF-539) was 64.3 µM (inactive), the GI50 (SN12C) was > 100 µM (inactive) and the GI50 (LOX IMVI) was > 100 µM (inactive). For the same compound, the GI50 (IGROV-1) was > 100 µM (inactive), the GI50 (NCI-H460) was > 100 µM (inactive) and the GI50 (UACC-62) was > 100 µM (inactive). The GI50 (SK-OV-3) was > 100 µM (inactive), the GI50 (SNB-78) was 39.7 µM (inactive) and the GI50 (DMS-273) was > 100 µM (inactive). For the same compound, the GI50 (A549) was > 100 µM (inactive), the GI50 (NCI-H23) was > 100 µM (inactive) and the GI50 (SK-MEL-28) was > 100 µM (inactive). The GI50 (EKVX) was 76.4 µM (inactive), the GI50 (Malme-3M) was > 100 µM (inactive) and the GI50 (SK-MEL-2) was > 100 µM (inactive). The GI50 (HCT-15) was over 100 µM, the GI50 (U-251) was > 100 µM (inactive) and the GI50 (RXF 393) was 33.3 µM (inactive). The GI50 (RPMI-8226) was > 100 µM (inactive), the GI50 (NCI-H522) was > 100 µM (inactive) and the GI50 (HCC 2998) was > 100 µM (inactive). The GI50 (SW-620) was > 100 µM (inactive), the GI50 (HT-29) was > 100 µM (inactive) and the GI50 (MOLT-4) was > 100 µM (inactive).
For `CC1=C(C(=O)Nc2cc(F)c(F)cc2F)C(c2ccc([N+](=O)[O-])cc2)C(C(=O)Nc2cc(F)c(F)cc2F)=C(C)N1`, the GI50 (HOP-92) was 12.8 µM (inactive), the GI50 (DMS-114) was 15.3 µM (inactive) and the GI50 (SNB-75) was 8.26 µM (inactive). For the same compound, the GI50 (NCI-H226) was 37.8 µM (inactive), the GI50 (HL-60) was 11.2 µM (inactive) and the GI50 (786-0) was 42.7 µM (inactive). For the same compound, the GI50 (KM-20L2) was 37.9 µM (inactive), the GI50 (CCRF-CEM) was 16.5 µM (inactive) and the GI50 (A498) was 18.2 µM (inactive). The GI50 (K562) was 24.2 µM (inactive), the GI50 (HOP-62) was 19.6 µM (inactive) and the GI50 (DLD-1) was 30.5 µM (inactive). The GI50 (OVCAR-3) was 19.1 µM (inactive), the GI50 (KM12) was 29.3 µM (inactive) and the GI50 (UO-31) was 13.1 µM (inactive). The GI50 (LXFL 529) was 39.7 µM (inactive), the GI50 (M14) was 54.2 µM (inactive) and the GI50 (OVCAR-8) was 33.8 µM (inactive). For the same compound, the GI50 (SK-MEL-5) was 23.6 µM (inactive), the GI50 (UACC-257) was 28.7 µM (inactive) and the GI50 (SF-295) was 56.1 µM (inactive). The GI50 (SF-268) was 22.2 µM (inactive), the GI50 (COLO 205) was 71.4 µM (inactive) and the GI50 (OVCAR-5) was 35 µM (inactive). The GI50 (CAKI-1) was 18.5 µM (inactive), the GI50 (M19-MEL) was 57.7 µM (inactive) and the GI50 (SNB-19) was 48.6 µM (inactive). For the same compound, the GI50 (TK-10) was 22.5 µM (inactive), the GI50 (SF-539) was 29.3 µM (inactive) and the GI50 (SN12C) was 40.7 µM (inactive). The GI50 (LOX IMVI) was 80.2 µM (inactive), the GI50 (IGROV-1) was 28.2 µM (inactive) and the GI50 (NCI-H460) was 43.9 µM (inactive). For the same compound, the GI50 (ACHN) was 27.1 µM (inactive), the GI50 (SK-OV-3) was 54.5 µM (inactive) and the GI50 (SNB-78) was 26.1 µM (inactive). For the same compound, the GI50 (A549) was 37.8 µM (inactive), the GI50 (NCI-H23) was 31.8 µM (inactive) and the GI50 (SK-MEL-28) was 42.7 µM (inactive). The GI50 (HCT-116) was 25.8 µM (inactive), the GI50 (EKVX) was 13.9 µM (inactive) and the GI50 (OVCAR-4) was 18.5 µM (inactive). For the same compound, the GI50 (Malme-3M) was 27.2 µM (inactive), the GI50 (SK-MEL-2) was 18 µM (inactive) and the GI50 (U-251) was 30.7 µM (inactive). For the same compound, the GI50 (RXF 393) was 10.6 µM (inactive), the GI50 (RPMI-8226) was 14 µM (inactive) and the GI50 (NCI-H522) was 15.7 µM (inactive). The GI50 (HCC 2998) was 21.4 µM (inactive), the GI50 (SW-620) was 48.2 µM (inactive) and the GI50 (HT-29) was 34.1 µM (inactive). The GI50 (MOLT-4) was 15 µM (inactive).
With `COc1ccc2c(c1)CC[C@@H]1C2CC[C@](C)(C#N)C1CC#N` (some centres undefined) the GI50 (HOP-92) was > 100 µM (inactive), the GI50 (DMS-114) was > 100 µM (inactive) and the GI50 (SNB-75) was > 100 µM (inactive). The GI50 (786-0) was > 100 µM (inactive), the GI50 (KM-20L2) was > 100 µM (inactive) and the GI50 (CCRF-CEM) was > 100 µM (inactive). The GI50 (A498) was > 100 µM (inactive), the GI50 (K562) was > 100 µM (inactive) and the GI50 (HOP-62) was > 100 µM (inactive). For the same compound, the GI50 (OVCAR-3) was > 100 µM (inactive), the GI50 (KM12) was > 100 µM (inactive) and the GI50 (UO-31) was > 100 µM (inactive). The GI50 (LXFL 529) was > 100 µM (inactive), the GI50 (M14) was > 100 µM (inactive) and the GI50 (UACC-257) was > 100 µM (inactive). The GI50 (SF-295) was > 100 µM (inactive), the GI50 (SF-268) was > 100 µM (inactive) and the GI50 (COLO 205) was > 100 µM (inactive). The GI50 (OVCAR-5) was > 100 µM (inactive), the GI50 (M19-MEL) was > 100 µM (inactive) and the GI50 (SNB-19) was > 100 µM (inactive). For the same compound, the GI50 (SR) was > 100 µM (inactive), the GI50 (IGROV-1) was > 100 µM (inactive) and the GI50 (NCI-H460) was > 100 µM (inactive). The GI50 (UACC-62) was > 100 µM (inactive), the GI50 (ACHN) was > 100 µM (inactive) and the GI50 (SK-OV-3) was > 100 µM (inactive). The GI50 (SNB-78) was > 100 µM (inactive), the GI50 (NCI-H23) was > 100 µM (inactive) and the GI50 (SK-MEL-28) was > 100 µM (inactive). For the same compound, the GI50 (HCT-116) was > 100 µM (inactive), the GI50 (OVCAR-4) was > 100 µM (inactive) and the GI50 (Malme-3M) was > 100 µM (inactive). The GI50 (U-251) was > 100 µM (inactive), the GI50 (RXF 393) was > 100 µM (inactive) and the GI50 (RPMI-8226) was > 100 µM (inactive). The GI50 (NCI-H522) was > 100 µM (inactive), the GI50 (HT-29) was > 100 µM (inactive) and the GI50 (MOLT-4) was > 100 µM (inactive).
